Consider 16 compounds from patent US4684647A, “Anti-bacterial pyrido-benzothiazine derivative and pharmaceutical composition therefor” (priority 1984, dated 1987).

Converted amounts (≈) assume the structure as drawn.

The subject of one data set is Escherichia coli (981). Description: MIC in agar, Escherichia coli (981). The class given is cell-based. The settings on record: Isosensitest agar, 10^4 CFU, 24 h, 37° C. The procedure:
(§1) The antibacterial activity (minimum inhibiting concentration, MIC) of the compounds according to the invention has been determined in agar, by adding the compound under evaluation at concentrations of from 0.1 to 100 meg/ml by means of a "multipoint inoculator" (Denley Techn. Ltd., England); the medium used was Isosensitest agar (Oxoid); the bacterial inoculate was 10^4 colony forming unity (CFU) per inoculation point. The reading of the results was done after 24 hour-incubation in thermostat at 37° C.
(§2) The MIC was defined as the lowest concentration of chemotherapeutic agent still capable of totally inhibiting the growth of bacteria, as detected from a lack of colony development in the inoculation point.
(§3) The microorganisms used for evaluating the activity of the specific compounds have been: Escherichia coli, Klebsiella P., Enterobacter, Serratia, Citrobacter, Proteus (+), Salmonella, Pseudomonas, Staphylococcus. All the compounds according to the present invention are provided with antibacterial activity against one or more microorganism(s) among those above mentioned. Some of such compounds are absorbed after having been administered orally to the animals, and are particularly useful as disinfectants of the urinary tract in that they are excreted in a high percentage (50-70% over 24 hours after the administration of 50 mg/kg per os) as such, and in metabolic active form, through the urine.
A = Escherichia coli (981)

For another data set, the system named is Pseudomonas aeruginosa. Description: MIC in agar, Pseudomonas aeruginosa. The settings on record: Isosensitest agar, 10^4 CFU, 24 h, 37° C., read-out: MIC, B = Pseudomonas aeruginosa. It is filed as cell-based. The procedure:
as §1, §2, §3
B = P udomonas aeruginosa

The test system of a further data set is Staphylococcus aureus. Kind of data set: MIC in agar, Staphylococcus aureus. It is filed as cell-based. As to conditions: Isosensitest agar, 10^4 CFU, 24 h, 37° C. The protocol:
as §1, §2, §3

Another data set has as its system Klebsiella pneumoniae. Kind of data set: MIC in agar, Klebsiella pneumoniae. The class given is cell-based. As to conditions: Isosensitest agar, 10^4 CFU, 24 h, 37° C., read-out: MIC, E = Klebsiella pneumoniae. The procedure:
as §1, §2, §3
E = Klebsiella pneumoniae

For the next data set, the system named is Enterobacter. Kind of data set: MIC in agar, Enterobacter. The settings on record: Isosensitest agar, 10^4 CFU, 24 h, 37° C., read-out: MIC, F = Enterobacter. The class given is cell-based. The procedure: as §1, §2, §3
In another data set the test system is Citrobacter. Kind of data set: MIC in agar, Citrobacter. It is filed as cell-based. As to conditions: Isosensitest agar, 10^4 CFU, 24 h, 37° C., read-out: MIC, G = Citrobacter. The protocol:
as §1, §2, §3

The test system of data set [1] is Proteus Morgani (indole +). Kind of data set: MIC in agar, Proteus Morgani (indole +). The class given is cell-based. The settings on record: Isosensitest agar, 10^4 CFU, 24 h, 37° C.; read-out: MIC, D = Proteus Morgani (indole +). The protocol: as §1, §2, §3
D = Proteus Morgani (indole +)

Another data set deals with bacteria. Kind of data set: antibacterial activity in vitro, overall. The class given is cell-based. As to conditions: for anti-bacterial activity in vitro: Table 1; for activity with chlorine instead of fluorine in the X-position: comparison with (a), (c), (p). The procedure:
as §1, §2, §3

The nature of data set [2]: pharmacokinetic test, absorption. The class given is in vivo.
A further data set in a line: in vivo. The settings on record: rat, po. The protocol: In Table 4 the percentage of urinary excretion of compound (h) is reported, as measured in the 24 hours successive to oral administration of the same to rats.
Each value is the average of three tested rats.
The tests have been performed in comparison with Ofloxacin, a well known antibacterial compound. The amount of excreted product has been determined with microbiological analysis, by using Klebsiella Pneumoniae as the testing microorganism.

With `O=C(O)c1cn2c3c(c(N4CCCC4)c(F)cc3c1=O)[S+]([O-])CC2` (centres unmarked) [(e)], the MIC with Escherichia coli (981) was 12.5 µg/mL (≈ 35.7 µM); in the data set with Pseudomonas aeruginosa it was over 50 µg/mL; in the data set on Staphylococcus aureus, 12.5 µg/mL (≈ 35.7 µM); in the data set with Klebsiella pneumoniae it was 25 µg/mL (≈ 71.4 µM); in the data set on Enterobacter, 50 µg/mL (≈ 143 µM); in the data set on Citrobacter, 50 µg/mL (≈ 143 µM). In data set [1], the MIC was over 50 µg/mL.
For `O=C(O)c1cn2c3c(c(N4CCNCC4)c(F)cc3c1=O)SCC2` [(g)], the MIC was 0.39 µg/mL (≈ 1.12 µM) against Escherichia coli (981); 12.5 µg/mL (≈ 35.8 µM) in the data set on Pseudomonas aeruginosa; 0.78 µg/mL (≈ 2.23 µM) against Staphylococcus aureus; under 0.39 µg/mL with Klebsiella pneumoniae; under 0.39 µg/mL in the data set on Enterobacter; 0.78 µg/mL (≈ 2.23 µM) in the data set with Citrobacter. In data set [1], the minimum inhibitory concentration (MIC) stood at 1.56 µg/mL (≈ 4.46 µM). Also, the “anti-bacterial activity in vitro” value in the data set on bacteria is “very good and comparable anti-bacterial activity”.
As to `O=C(O)c1cn2c3c(c(N4CCN(C(=O)C(F)(F)F)CC4)c(F)cc3c1=O)SCC2` [(l)], the MIC is under 0.39 µg/mL against Escherichia coli (981); 12.5 µg/mL (≈ 28.1 µM) in the data set on Pseudomonas aeruginosa; 1.56 µg/mL (≈ 3.5 µM) in the data set on Staphylococcus aureus; under 0.39 µg/mL in the data set on Klebsiella pneumoniae; under 0.39 µg/mL with Enterobacter; 0.39 µg/mL (≈ 0.876 µM) in the data set on Citrobacter. Moreover, in [1], the MIC was 1.56 µg/mL (≈ 3.5 µM). Further, the “anti-bacterial activity in vitro” value in the data set on bacteria is “very good and comparable anti-bacterial activity”.
As for `CC1CSc2c(N3CCN(C)CC3)c(F)cc3c(=O)c(C(=O)O)cn1c23` (centres unmarked) [(p)], the MIC against Escherichia coli (981) is 0.78 µg/mL (≈ 2.07 µM); in the data set with Pseudomonas aeruginosa, 50 µg/mL (≈ 132 µM); in the data set on Staphylococcus aureus, 0.78 µg/mL (≈ 2.07 µM); in the data set on Klebsiella pneumoniae it was under 0.39 µg/mL; with Enterobacter, under 0.39 µg/mL. Moreover, the “anti-bacterial activity in vitro” value in the data set with bacteria is “very good and comparable anti-bacterial activity”.
With `CC1CSc2c(Cl)c(F)cc3c(=O)c(C(=O)O)cn1c23` (centres unmarked) [(n), 9-fluoro-10-chloro-3-methyl-7-oxo-2,3-dihydro-7H-pyrido[1,2,3 de][1,4]benzothiazine-6-carboxylic acid], the MIC came out at 0.39 µg/mL (≈ 1.24 µM) in the data set on Escherichia coli (981); 25 µg/mL (≈ 79.7 µM) with Pseudomonas aeruginosa; 0.39 µg/mL (≈ 1.24 µM) with Staphylococcus aureus; 0.78 µg/mL (≈ 2.49 µM) in the data set with Klebsiella pneumoniae; 0.39 µg/mL (≈ 1.24 µM) in the data set with Enterobacter. Further, the “anti-bacterial activity in vitro” value in the data set with bacteria is “very good and comparable anti-bacterial activity”.
On to `O=C(O)c1cn2c3c(c(N4CCN(CC(F)(F)F)CC4)c(F)cc3c1=O)SCC2` [(i)], for which the MIC against Escherichia coli (981) is over 50 µg/mL; with Pseudomonas aeruginosa, over 50 µg/mL; in the data set on Staphylococcus aureus it was 0.39 µg/mL (≈ 0.904 µM); in the data set on Klebsiella pneumoniae, over 50 µg/mL; with Enterobacter, over 50 µg/mL; in the data set on Citrobacter, 12.5 µg/mL (≈ 29 µM). For the same compound, in data set [1], the MIC is over 50 µg/mL.
Regarding `CC1CSc2c(N3CCNCC3)c(F)cc3c(=O)c(C(=O)O)cn1c23` (centres unmarked) [(r)], the MIC in the data set with Escherichia coli (981) was 0.78 µg/mL (≈ 2.15 µM); in the data set with Pseudomonas aeruginosa, 12.5 µg/mL (≈ 34.4 µM); in the data set with Staphylococcus aureus it was 0.78 µg/mL (≈ 2.15 µM); with Klebsiella pneumoniae, under 0.39 µg/mL; in the data set on Enterobacter it was under 0.39 µg/mL. Besides, in the data set on bacteria, the “anti-bacterial activity in vitro” value is “very good and comparable anti-bacterial activity”.
`O=C(O)c1cn2c3c(c(Cl)c(F)cc3c1=O)SCC2` [(a), 9-fluoro-10-chloro-7-oxo-2,3-dihydro-7H-pyrido[1,2,3de][1,4]benzothiazine-6-carboxylic acid]: the MIC in the data set with Escherichia coli (981) was 0.39 µg/mL (≈ 1.3 µM); in the data set with Pseudomonas aeruginosa it was over 25 µg/mL; against Staphylococcus aureus, 0.39 µg/mL (≈ 1.3 µM); with Klebsiella pneumoniae, 0.78 µg/mL (≈ 2.6 µM); in the data set with Enterobacter, 0.39 µg/mL (≈ 1.3 µM); in the data set with Citrobacter, 0.78 µg/mL (≈ 2.6 µM). Also, the MIC in data set [1] was 1.56 µg/mL (≈ 5.21 µM). In addition, the “absorption” value in data set [2] was “not at all absorbed”. Moreover, in the data set with bacteria, the “anti-bacterial activity in vitro” value was “very good and comparable anti-bacterial activity”.
Turning to `O=C(O)c1cn2c3c(c(N4CCCC4)c(F)cc3c1=O)SCC2` [(c)], the MIC against Escherichia coli (981) is 1.56 µg/mL (≈ 4.67 µM); with Pseudomonas aeruginosa, 3.12 µg/mL (≈ 9.33 µM); with Staphylococcus aureus, under 0.39 µg/mL; with Klebsiella pneumoniae it was 1.56 µg/mL (≈ 4.67 µM); in the data set on Enterobacter, 1.56 µg/mL (≈ 4.67 µM); in the data set with Citrobacter it was 25 µg/mL (≈ 74.8 µM). Besides, the MIC in [1] worked out at 3.12 µg/mL (≈ 9.33 µM). For the same compound, the “anti-bacterial activity in vitro” value in the data set on bacteria is “very good and comparable anti-bacterial activity”.
On to `CC1CSc2c(F)c(F)cc3c(=O)c(C(=O)O)cn1c23` (centres unmarked) [(o), 9,10-difluoro-3-methyl-7-oxo-2,3-dihydro-7H-pyrido[1,2,3 de][1,4]benzothiazine-6-carboxylic acid], for which the “anti-bacterial activity in vitro” value in the data set on bacteria is “very good and comparable anti-bacterial activity”.
Take `O=C(O)c1cn2c3c(c(Cl)c(Cl)cc3c1=O)SCC2` [Comparison (b), reference compound]: the MIC was over 50 µg/mL against Escherichia coli (981); over 50 µg/mL with Pseudomonas aeruginosa; 0.78 µg/mL (≈ 2.47 µM) against Staphylococcus aureus; 12.5 µg/mL (≈ 39.5 µM) in the data set with Klebsiella pneumoniae; over 50 µg/mL with Enterobacter; over 50 µg/mL in the data set on Citrobacter. For the same compound, the MIC in data set [1] came to 6.25 µg/mL (≈ 19.8 µM). In addition, the “activity with chlorine instead of fluorine in the X-position” value (“activity with chlorine instead” for short) in the data set on bacteria is “strongly reduced”.
As for `O=C(O)c1cn2c3c(c(N4CCCC4)c(Cl)cc3c1=O)SCC2` [Comparison (d), reference compound], the MIC is over 50 µg/mL against Escherichia coli (981); over 50 µg/mL with Pseudomonas aeruginosa; 0.78 µg/mL (≈ 2.22 µM) against Staphylococcus aureus; 12.5 µg/mL (≈ 35.6 µM) in the data set with Klebsiella pneumoniae; over 50 µg/mL with Enterobacter; over 50 µg/mL in the data set on Citrobacter. In addition, the MIC in [1] was found to be 3.12 µg/mL (≈ 8.89 µM). Moreover, the “activity with chlorine instead” value in the data set on bacteria is recorded as “strongly reduced”.
With `CC1CSc2c(N3CCN(C)CC3)c(Cl)cc3c(=O)c(C(=O)O)cn1c23` (centres unmarked) [Comparison (q), reference compound], the MIC against Escherichia coli (981) is over 50 µg/mL; with Pseudomonas aeruginosa it was over 12.5 µg/mL; against Staphylococcus aureus it was 3.12 µg/mL (≈ 7.92 µM); in the data set with Klebsiella pneumoniae it was 12.5 µg/mL (≈ 31.7 µM); with Enterobacter it was over 50 µg/mL. The “activity with chlorine instead” value in the data set on bacteria is reported as “strongly reduced”.
As to `O=C(O)c1cn2c3c(c(N4CCCC4)c(F)cc3c1=O)S(=O)(=O)CC2` [(f), 9-fluoro-10-(1-pyrrolidinyl)-7-oxo-2,3-dihydro-7H-pyrido[1,2,3 de][1,4]benzothiazine-1,1-dioxido-6-carboxylic acid], the MIC against Escherichia coli (981) is 3.12 µg/mL (≈ 8.52 µM); in the data set on Pseudomonas aeruginosa it was over 50 µg/mL; in the data set on Staphylococcus aureus it was 3.12 µg/mL (≈ 8.52 µM); in the data set with Klebsiella pneumoniae, 25 µg/mL (≈ 68.2 µM); in the data set with Enterobacter, 25 µg/mL (≈ 68.2 µM); in the data set on Citrobacter, 25 µg/mL (≈ 68.2 µM). The MIC in [1] was over 50 µg/mL.
On to `CC1CN(c2c(F)cc3c(=O)c(C(=O)O)cn4c3c2SCC4)CC(C)N1` (centres unmarked) [(m)], for which the MIC stood at 6.25 µg/mL (≈ 16.6 µM) in the data set with Escherichia coli (981); 100 µg/mL (≈ 265 µM) with Pseudomonas aeruginosa; 3.12 µg/mL (≈ 8.27 µM) against Staphylococcus aureus; 6.25 µg/mL (≈ 16.6 µM) in the data set on Klebsiella pneumoniae; 3.12 µg/mL (≈ 8.27 µM) with Enterobacter; 12.5 µg/mL (≈ 33.1 µM) with Citrobacter. The MIC in data set [1] was 25 µg/mL (≈ 66.2 µM).
In the case of `CC1COc2c(N3CCN(C)CC3)c(F)cc3c(=O)c(C(=O)O)cn1c23` (centres unmarked) [Ofloxacin, reference compound], the dose excreted at 24 h worked out at 61 ± 4.58% in “in vivo” (20 mg/kg) and 54.5 ± 5.29% in the data set “in vivo” (50 mg/kg).

Broadly, the MIC is the least concentration at which growth counts as inhibited.
